Test results published in patent publication US20240199535A1, “DEUTERATED DHODH INHIBITORS” (priority 2021, published 2024).

Experiments:
SARS-CoV-2 = assay: Antiviral activity on SARS-CoV-2, viral replication (YFP) assay; format: cell-based; settings: Severe acute respiratory syndrome coronavirus 2, read-out: EC50 range
in vivo [1] = settings: CC7BL/6J, mouse, po, 5 mg/kg
Method: The pharmacokinetics of the compounds of the present invention was evaluated in 3 male and 3 female mice (CC7BL/6J, 8 week old) after oral cassette dosing. Dose was 5 mg/kg, application volume was 5 mL/kg and vehicle was 5% Solutol, 95% NaCl solution (at 0.9% saline concentration). At each designated time point (0, 0.25, 0.5, 1, 2, 4, 8 h after dosing), 20 μL whole blood were collected from the tail vein into Li-heparin tubes, frozen on dry ice within 1-2 minutes of sampling and stored at −20° C. until processed for LC-MS analysis.

in vitro [2] = settings: human, microsomes
in vitro [3] = settings: male, rat, microsomes
in vivo [4] = settings: Han Wistar, rat
Method: Rats are provided with a catheter in the jugular vein (2-3 days prior to blood sampling). At each designated time point (0, 1, 2, 4, 8 and 24 h after dosing), 100 μL blood were collected into Li-heparin tubes, stored on ice until centrifugation (10 minutes at 3000 g, 4° C.) and plasma was prepared within 45 min after collection, frozen at −20° C. and stored at this temperature until processed for LC-MS analysis.

SARS-CoV-2 d6-YFP = assay: Combinatorial drug assessment with EIDD-1931, viral replication inhibition assay; format: cell-based

For `[2H]C([2H])([2H])Oc1cccc(-c2cc(F)c(NC(=O)C3=C(C(=O)O)CCC3)c(F)c2)n1` [1/10], the EC50 (SARS-CoV-2) was 10 to 25 µM.
Work on `[2H]C([2H])([2H])Oc1cccc(-c2ccc(NC(=O)C3=C(C(=O)O)CCC3)c3c2CCC3)c1` [Example 12/1] yielded an EC50 (SARS-CoV-2) of under 10 µM.
`COc1cccc(-c2ccc(NC(=O)C3=C(C(=O)O)CCC3)c(F)c2)c1` [Example C26, vidofludimus, reference compound] gave an AUC (in vivo [1]; female) of 1.97 µg·h/mL, a Cmax (in vivo [1]; female) of 0.745 µg/mL and a half-life (in vivo [1]; female) of 1.7 h. It also gave an AUC (in vivo [1]; male) of 1.62 µg·h/mL, a Cmax (in vivo [1]; male) of 0.789 µg/mL and a half-life (in vivo [1]; male) of 1.7 h. It also gave a microsomal CLint (in vitro [2]; both) of 2.27 µL/min/mg, a microsomal CLint (in vitro [2]; female) of 6.58 µL/min/mg and a microsomal CLint (in vitro [2]; male) of 12.6 µL/min/mg. The microsomal CLint (in vitro [3]) was 8.48 µL/min/mg, the “% AUCextra” value (in vivo [4]; female, iv, 1 mg/kg) was 12% and the AUC(0-inf) (in vivo [4]; female, iv, 1 mg/kg) was 82.9 µg·h/mL. The AUC(0-t) (in vivo [4]; female, iv, 1 mg/kg) was 68.6 µg·h/mL, the C0 (in vivo [4]; female, iv, 1 mg/kg) was 8.13 µg/mL and the Cz (in vivo [4]; female, iv, 1 mg/kg) was 939 ng/mL. For the same compound, the Vz/f (in vivo [4]; female, iv, 1 mg/kg) was 0.016 L/kg, the t1/2z (in vivo [4]; female, iv, 1 mg/kg) was 9.7 h and the tz (in vivo [4]; female, iv, 1 mg/kg) was 24 h. For the same compound, the bioavailability (in vivo [4]; female, po) was 73.8%, the “% AUCextra” value (in vivo [4]; female, po, 5 mg/kg) was 17% and the AUC(0-inf) (in vivo [4]; female, po, 5 mg/kg) was 297 µg·h/mL. It also gave an AUC(0-t) (in vivo [4]; female, po, 5 mg/kg) of 253 µg·h/mL, a CL/F (in vivo [4]; female, po, 5 mg/kg) of 0.222 L/h/kg and a Cmax (in vivo [4]; female, po, 5 mg/kg) of 21.3 µg/mL. The Cz (in vivo [4]; female, po, 5 mg/kg) was 3620 ng/mL, the Tmax (in vivo [4]; female, po, 5 mg/kg) was 2 h and the Vd/F (in vivo [4]; female, po, 5 mg/kg) was 0.016 L/kg. The t1/2z (in vivo [4]; female, po, 5 mg/kg) was 9.1 h, the tz (in vivo [4]; female, po, 5 mg/kg) was 24 h and the “% AUCextra” value (in vivo [4]; male, iv, 1 mg/kg) was 22%. It also gave an AUC(0-inf) (in vivo [4]; male, iv, 1 mg/kg) of 47.9 µg·h/mL, an AUC(0-t) (in vivo [4]; male, iv, 1 mg/kg) of 43.2 µg·h/mL and a C0 (in vivo [4]; male, iv, 1 mg/kg) of 5.79 µg/mL. The Cz (in vivo [4]; male, iv, 1 mg/kg) was 421 ng/mL, the Vz/f (in vivo [4]; male, iv, 1 mg/kg) was 0.009 L/kg and the t1/2z (in vivo [4]; male, iv, 1 mg/kg) was 7.3 h. For the same compound, the tz (in vivo [4]; male, iv, 1 mg/kg) was 24 h, the bioavailability (in vivo [4]; male, po) was 92.7% and the “% AUCextra” value (in vivo [4]; male, po, 5 mg/kg) was 25%. It also gave an AUC(0-inf) (in vivo [4]; male, po, 5 mg/kg) of 206 µg·h/mL, an AUC(0-t) (in vivo [4]; male, po, 5 mg/kg) of 200 µg·h/mL and a CL/F (in vivo [4]; male, po, 5 mg/kg) of 0.223 L/h/kg. It also gave a Cmax (in vivo [4]; male, po, 5 mg/kg) of 14.9 µg/mL, a Cz (in vivo [4]; male, po, 5 mg/kg) of 1540 ng/mL and a Tmax (in vivo [4]; male, po, 5 mg/kg) of 2 h. For the same compound, the Vd/F (in vivo [4]; male, po, 5 mg/kg) was 0.007 L/kg, the t1/2z (in vivo [4]; male, po, 5 mg/kg) was 6.4 h and the tz (in vivo [4]; male, po, 5 mg/kg) was 24 h.
For `[2H]C([2H])([2H])Oc1cccc(-c2cc(F)c(NC(=O)C3=C(C(=O)O)CCC3)c(F)c2)c1` [Example 9, 2-((3,5-Difluoro-3′-(methoxy-d3)-[1,1′-biphenyl]-4-yl)carbamoyl)cyclopent-1-ene-1-carboxylic Acid], the “antiviral effect on SARS-CoV-2 in combination with nucleoside analogue EIDD-1931” value (SARS-CoV-2 d6-YFP) was “synergistic antiviral effects” and the EC50 (SARS-CoV-2) was 10 to 25 µM.
`[2H]c1cc([2H])c(-c2ccc(NC(=O)C3=C(C(=O)O)CCC3)c(F)c2)c([2H])c1OC([2H])([2H])[2H]` [Example 2, 2-((3-Fluoro-3′-(methoxy-d3)-[1,1′-biphenyl]-4-yl-2′,4′,6′-d3)carbamoyl)cyclopent-1-ene-1-carboxylic Acid] gave a microsomal CLint (in vitro [2]; both) of 0.74 µL/min/mg, a microsomal CLint (in vitro [2]; female) of 5.8 µL/min/mg and a microsomal CLint (in vitro [2]; male) of 7.67 µL/min/mg. The “% AUCextra” value (in vivo [4]; female, iv, 1 mg/kg) was 13%, the AUC(0-inf) (in vivo [4]; female, iv, 1 mg/kg) was 79.1 µg·h/mL and the AUC(0-t) (in vivo [4]; female, iv, 1 mg/kg) was 64.7 µg·h/mL. For the same compound, the C0 (in vivo [4]; female, iv, 1 mg/kg) was 7.98 µg/mL, the Cz (in vivo [4]; female, iv, 1 mg/kg) was 915 ng/mL and the Vz/f (in vivo [4]; female, iv, 1 mg/kg) was 0.017 L/kg. The t1/2z (in vivo [4]; female, iv, 1 mg/kg) was 10.0 h, the tz (in vivo [4]; female, iv, 1 mg/kg) was 24 h and the bioavailability (in vivo [4]; female, po) was 83.1%. For the same compound, the “% AUCextra” value (in vivo [4]; female, po, 5 mg/kg) was 16%, the AUC(0-inf) (in vivo [4]; female, po, 5 mg/kg) was 320 µg·h/mL and the AUC(0-t) (in vivo [4]; female, po, 5 mg/kg) was 269 µg·h/mL. It also gave a CL/F (in vivo [4]; female, po, 5 mg/kg) of 0.21 L/h/kg, a Cmax (in vivo [4]; female, po, 5 mg/kg) of 21.3 µg/mL and a Cz (in vivo [4]; female, po, 5 mg/kg) of 3892 ng/mL. It also gave a Tmax (in vivo [4]; female, po, 5 mg/kg) of 2 h, a Vd/F (in vivo [4]; female, po, 5 mg/kg) of 0.017 L/kg and a t1/2z (in vivo [4]; female, po, 5 mg/kg) of 9.3 h. For the same compound, the tz (in vivo [4]; female, po, 5 mg/kg) was 24 h, the “% AUCextra” value (in vivo [4]; male, iv, 1 mg/kg) was 23% and the AUC(0-inf) (in vivo [4]; male, iv, 1 mg/kg) was 45.2 µg·h/mL. It also gave an AUC(0-t) (in vivo [4]; male, iv, 1 mg/kg) of 40.4 µg·h/mL, a C0 (in vivo [4]; male, iv, 1 mg/kg) of 5.31 µg/mL and a Cz (in vivo [4]; male, iv, 1 mg/kg) of 422 ng/mL. The Vz/f (in vivo [4]; male, iv, 1 mg/kg) was 0.01 L/kg, the t1/2z (in vivo [4]; male, iv, 1 mg/kg) was 7.6 h and the tz (in vivo [4]; male, iv, 1 mg/kg) was 24 h. For the same compound, the bioavailability (in vivo [4]; male, po) was 100%, the “% AUCextra” value (in vivo [4]; male, po, 5 mg/kg) was 22% and the AUC(0-inf) (in vivo [4]; male, po, 5 mg/kg) was 233 µg·h/mL. The AUC(0-t) (in vivo [4]; male, po, 5 mg/kg) was 202 µg·h/mL, the CL/F (in vivo [4]; male, po, 5 mg/kg) was 0.206 L/h/kg and the Cmax (in vivo [4]; male, po, 5 mg/kg) was 16.1 µg/mL. It also gave a Cz (in vivo [4]; male, po, 5 mg/kg) of 1657 ng/mL, a Tmax (in vivo [4]; male, po, 5 mg/kg) of 2 h and a Vd/F (in vivo [4]; male, po, 5 mg/kg) of 0.008 L/kg. It also gave a t1/2z (in vivo [4]; male, po, 5 mg/kg) of 6.6 h and a tz (in vivo [4]; male, po, 5 mg/kg) of 24 h.
`[2H]C([2H])([2H])Oc1cccc(-c2cc(F)c(NC(=O)C3=C(C(=O)O)CSC3)c(F)c2)c1` [Example 10, 4-((3,5-Difluoro-3′-(methoxy-d3)-[1,1′-biphenyl]-4-yl)carbamoyl)-2,5-dihydro-thiophene-3-carboxylic Acid] showed an EC50 (SARS-CoV-2) of 10 to 25 µM.
Compound `[2H]C([2H])([2H])Oc1cccc(-c2cnc(NC(=O)C3=C(C(=O)O)CCC3)c(F)c2)c1` [Example 12, 2-((3-Fluoro-5-(3-(methoxy-d3)phenyl)pyridin-2-yl)carbamoyl)cyclopent-1-ene-1-carboxylic Acid] has an EC50 (SARS-CoV-2) of under 10 µM.
For `[2H]c1cc([2H])c(-c2c(F)c(F)c(NC(=O)C3=C(C(=O)O)CCC3)c(F)c2F)c([2H])c1OC(F)(F)F` [Example 3, 2-((2,3,5,6-Tetrafluoro-3′-(trifluoromethoxy)-[1,1′-biphenyl]-4-yl-2′,4′,6′-d3)carbamoyl)cyclopent-1-ene-1-carboxylic Acid], the EC50 (SARS-CoV-2) was under 10 µM.
Work on `[2H]C([2H])([2H])Oc1cc(-c2cc(F)c(NC(=O)C3=C(C(=O)O)CCC3)c(F)c2)ccn1` [1/9] yielded an EC50 (SARS-CoV-2) of 25 to 50 µM.
Compound `[2H]C([2H])([2H])Oc1cccc(-c2ccc(NC(=O)C3=C(C(=O)O)CCC3)c3cnccc23)c1` [12/3] has an EC50 (SARS-CoV-2) of 25 to 50 µM.
